Read-outs that look alike come from different tables or passages of the source.
What was measured:
[1] = system: HeLa (human cervix adenocarcinoma) cells; experiment: Resazurin-based cytotoxicity assay on a mammalian cell line; details: 20 μM, Figure S2
Protocol: (§1) HeLa cells were grown and maintained in a culture medium comprised of Dulbecco’s Modified Eagle’s Medium (DMEM) with 5 mM L-glutamine (Lonza, Basel, Switzerland), supplemented with 10% (v/v) heat inactivated foetal bovine serum and antibiotics (penicillin/streptomycin/fungizone-PSF) in a humidified chamber at 37 °C with an atmosphere of 5% CO2. To carry out passaging of cells, cultures were treated with 1% trypsin (w/v) to lift cells, which were then washed in 1 × phosphate buffered saline (PBS) before being re-seeded into culture flasks. For assessment of the cytotoxic effects, the small molecules were added to HeLa cells at a fixed concentration of 20 μM. After an incubation period of 24 h, the number of cells surviving drug exposure were determined using a resazurin-based cytotoxicity assay. The resazurin-based cytotoxicity assay was conducted as previously mentioned. Results were expressed as % cell—the resorufin fluorescence in small molecule-treated wells relative to untreated controls. Assessment of each small molecule was conducted in duplicate, with error bars representing standard deviation (SD).

[2] = system: human Hsp70; design: method as in PMID 24854538; details: cited from earlier work
[3] = system: plasmodial Hsp70s; design: method as in PMID 24854538; details: cited from earlier work
[4] = system: P. falciparum; design: method as in PMID 21426241; details: read-out: IC50 against P. falciparum; cited from earlier work
[5] = molecular target: phosphodiesterase-4D; design: method as in PMID 24473168; details: read-out: IC50 against phosphodiesterase-4D; cited from earlier work
[6] = system: bloodstream form T. b. brucei parasites; experiment: Resazurin-based anti-trypanosomal assay on bloodstream form T. b. brucei parasites; format: cell-based, Trypanosoma brucei brucei; details: Trypanosoma brucei
Protocol: Bloodstream form T. b. brucei Lister 927 variant 221 strain parasites were cultured in filter sterilized complete Iscoves Modified Dulbeccos Media (IMDM) based HM1-9 medium (IMDM base powder, […] sodium bicarbonate, 1 mM hypoxanthine, 1 mM sodium pyruvate, 0.16 mM thymidine, 0.05 mM bathocuprone sulphate acid, 10% (v/v) heat inactivated foetal bovine serum, 1.5 mM L-cysteine, 0.2 mM β-mercaptoethanol, pH 7.5) in a humidified chamber at 37 °C with an atmosphere of 5% CO2. Parasite growth was monitored using a Neubauer haemocytometer to count the cell number, after which cells were diluted, according to their density, in the described pre-warmed media.
All compounds of interest were resuspended to stocks of 30 mM in DMSO and stored at −80 °C prior to use in in vitro experiments. For assessment of anti-trypanosomal activity, compounds were added to in vitro cultures of bloodstream form T. b. brucei parasites (1 × 10^5 cells/mL) in 96-well plates at a fixed concentration of 20 μM. After an incubation period of 48 h, the number of parasites surviving drug exposure were determined using a resazurin-based cytotoxicity assay. Resazurin is an oxidation–reduction sensitive dye that is reduced by living cells to resorufin. Resorufin is a fluorophore (Excitation560/Emission590) and thus was quantified in a multi-well fluorescence plate reader. Results are expressed as % parasite viability—the resorufin fluorescence in small molecule-treated wells relative to untreated controls. Assessment of each small molecule was conducted in duplicate, with error bars representing standard deviation (SD). […] The compounds were added to in vitro cultures of bloodstream form T. b. brucei parasites (1 × 10^5 cells/mL) in 96-well plates in a 3-fold dilution series with 100 μM as the highest concentration. After an incubation period of 48 h, the number of parasites surviving drug exposure were determined as previously mentioned. The % parasite viability was determined as previously mentioned. The IC50 (the concentration of compound required to decrease cell viability of T. b. brucei parasites by 50% compared to those grown in the absence of the compound) values for each of the compounds were determined from a dose–response curve by non-linear regression generated using GraphPad Prism® (v. 7.0; San Diego, CA, USA) software. For comparative purposes, pentamidine at a fixed concentration of 1 μM was employed as a drug standard.

[7] = molecular target: T1, TbHsp70 / Tbj2 (Trypanosoma brucei brucei, UniProt P11145); experiment: Tbj2-stimulated ATPase activity assay, TbHsp70; format: biochemical; details: TbHsp70, 150 μM, Figure 5A
T1 construct: His-tag; made in house; host or cells: Escherichia coli (Tbj2: E. coli BL21 (DE3))
Protocol: (§2) The determination of the ATPase activity of the Hsp70 proteins was performed using the high throughput colorimetric ATPase assay kit (Innova Biosciences, Cambridge, UK). This method enables the quantification of the inorganic phosphate (Pi) released from ATP hydrolysis by an enzyme. Briefly, the molecular chaperones were prepared in ATPase assay buffer (100 mM Tris-HCl, 7.5, 2 mM MgCl2, 50 mM KCl, 0.5 mM DTT) and incubated with ATP (0–2 mM) for 1 h at 37 °C. […] The samples containing Pi hydrolysed from ATP were incubated with the PiColorLock™ solution, which is a malachite green dye solution that in the presence of Pi changes absorbance due to generation of molybdate-phosphate complexes. The absorbance was measured at 595 nm using a Powerwave 96-well plate reader (BioTek Instruments, Inc., Winooski, VT, USA), and absorbance values were converted to phosphate concentrations using a standard curve of absorbance vs. phosphate concentration based on a set of Pi standards provided by the supplier assayed along with the samples. All samples were corrected for spontaneous breakdown of ATP observed in a control experiment in the absence of protein. The trypanosomal and human Hsp70s were used at 0.8 μM, and the J-proteins were used at 0.4 μM. An initial screen of the modulatory effects of the compounds on the ATPase activity of the Hsp70s was conducted using 300 μM of the compounds. Compounds identified to have a modulatory effect on the basal and J-protein-stimulated ATPase activity of Hsp70 were used at varying concentrations. The modulatory effect of the selected compounds on the basal and J-protein stimulated ATPase activity of the T. brucei Hsp70s was represented as fold change with the basal and J-protein stimulated ATPase activity of the Hsp70s taken as 1 respectively. These experiments were conducted on three independently purified batches of proteins, but due to limited availability of the selected compounds, each assay was conducted in duplicate on each batch of protein. In control reactions to evaluate the effect of DMSO on basal and J-protein stimulated ATPase activity of the Hsp70s, the solvent was added to a final concentration of 1% (v/v) in the assay. The assays were performed in duplicate on three independently purified batches of proteins.

[8] = system: TbHsp70.4 / Tbj2; experiment: Tbj2-stimulated ATPase activity assay, TbHsp70.4; format: biochemical, Trypanosoma brucei; details: TbHsp70.4, 150 μM, Figure 5B
Protocol: as §2

[9] = system: TbHsp70.4; experiment: Basal ATPase activity assay, TbHsp70.4; format: biochemical, Trypanosoma brucei; details: TbHsp70.4, 1 μM
Protocol: (§3) The determination of the ATPase activity of the Hsp70 proteins was performed using the high throughput colorimetric ATPase assay kit (Innova Biosciences, Cambridge, UK). This method enables the quantification of the inorganic phosphate (Pi) released from ATP hydrolysis by an enzyme. Briefly, the molecular chaperones were prepared in ATPase assay buffer (100 mM Tris-HCl, 7.5, 2 mM MgCl2, 50 mM KCl, 0.5 mM DTT) and incubated with ATP (0–2 mM) for 1 h at 37 °C. […] The samples containing Pi hydrolysed from ATP were incubated with the PiColorLock™ solution, which is a malachite green dye solution that in the presence of Pi changes absorbance due to generation of molybdate-phosphate complexes. The absorbance was measured at 595 nm using a Powerwave 96-well plate reader (BioTek Instruments, Inc., Winooski, VT, USA), and absorbance values were converted to phosphate concentrations using a standard curve of absorbance vs. phosphate concentration based on a set of Pi standards provided by the supplier assayed along with the samples. All samples were corrected for spontaneous breakdown of ATP observed in a control experiment in the absence of protein. The trypanosomal and human Hsp70s were used at 0.8 μM, and the J-proteins were used at 0.4 μM. An initial screen of the modulatory effects of the compounds on the ATPase activity of the Hsp70s was conducted using 300 μM of the compounds. […]

[10] = molecular target: T2, TbHsp70 (Trypanosoma brucei brucei, UniProt P11145); experiment: Basal ATPase activity assay, TbHsp70; format: biochemical
T2 construct: His-tag; made in house; host or cells: Escherichia coli
Protocol: as §3

[11] = Resazurin-based cytotoxicity assay on a mammalian cell line; design: species or system human; details: human; HeLa cells, 10 μM
Protocol: as §1

[12] = system: c-Met kinase; design: method as in PMID 23081922; details: 10 μM; cited from earlier work
[13] = T. b. brucei parasites, stated as bound, read-out: IC50 values
[14] = Table 1, T. b. brucei parasites cultured in vitro, 48 h, dose-response, read-out: IC50/μM
[15] = Table S1, 48 select compounds, T. b. brucei, 48 h, read-out: IC50/

T1 sequence (P11145 whole entry): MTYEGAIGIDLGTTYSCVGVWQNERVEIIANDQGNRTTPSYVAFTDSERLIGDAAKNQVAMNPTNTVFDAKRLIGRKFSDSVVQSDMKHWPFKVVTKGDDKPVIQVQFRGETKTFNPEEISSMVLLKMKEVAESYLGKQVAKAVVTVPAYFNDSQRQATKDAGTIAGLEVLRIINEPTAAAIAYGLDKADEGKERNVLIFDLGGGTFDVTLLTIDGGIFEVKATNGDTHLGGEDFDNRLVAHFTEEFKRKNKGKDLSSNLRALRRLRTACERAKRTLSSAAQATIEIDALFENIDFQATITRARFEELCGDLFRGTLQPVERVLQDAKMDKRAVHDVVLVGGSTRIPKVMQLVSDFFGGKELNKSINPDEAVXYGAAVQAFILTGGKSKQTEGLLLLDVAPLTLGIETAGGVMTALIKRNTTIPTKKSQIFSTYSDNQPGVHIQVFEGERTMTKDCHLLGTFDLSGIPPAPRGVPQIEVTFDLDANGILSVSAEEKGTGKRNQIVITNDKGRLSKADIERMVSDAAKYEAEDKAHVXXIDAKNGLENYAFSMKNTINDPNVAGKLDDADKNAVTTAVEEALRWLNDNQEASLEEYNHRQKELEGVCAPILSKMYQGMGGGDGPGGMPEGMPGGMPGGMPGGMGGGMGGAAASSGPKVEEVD
T2 sequence (P11145 whole entry): as above

Row | SMILES | IC50 [6, 13] [µM] | IC50 [6, 14] [µM] | IC50 [6, 15] [µM] | effect of order of addition (compound vs Tbj2) on inhibition of J-stimulated ATPase activity [7] | effect of order of addition (compound vs Tbj2) on inhibition of J-stimulated ATPase activity [8] | further results
1 | CC(C)=CCC/C(C)=C/Cn1cnc(=N)c2ncn(C/C=C(\C)CCC=C(C)C)c21 [Compound 5, 3,9-bis((E)-3,7-dimethylocta-2,6-dien-1-yl)-3,9-dihydro-6H-purin-6-imine] | – | – | – | – | – | toxicity to HeLa cells [1]: toxic
2 | C/C(=C/C(=O)CC(C)C)CCC/C(C)=C/CC/C(C)=C/Cn1cnc2c1c(=O)ncn2C [malonganenone A] | – | – | – | – | – | effect on steady-state and J-protein stimulated ATPase activity [2]: not that of human Hsp70; effect on steady-state and J-protein stimulated ATPase activity [3]: inhibited; IC50 [4]: 0.81 µM
3 | CNC(=O)c1c(N(C)C=O)ncn1C/C=C(\C)CC/C=C(\C)CCC/C(C)=C\C(=O)C=C(C)C [malonganenone Q] | – | – | – | – | – | IC50 [5]: 20.3 µM
4 | CC(C)=CCC/C(C)=C/CC/C(C)=C/Cn1cnc2c1c(=O)[nH]c(=O)n2C [Compound 31, 3-methyl-7-((2E,6E)-3,7,11-trimethyldodeca-2,6,10-trien-1-yl)-3,7-dihydro-1H-purine-2,6-dione] | < 7 | 1.9 | 1.91 | no significant difference | no significant difference | –
5 | CC(C)=CCC/C(C)=C/CCC(C)=CCn1cnc2c1c(=O)[nH]c(=O)n2CC=C(C)CC/C=C(\C)CCC=C(C)C [Compound 28, 3,7-Bis((6E)-3,7,11-trimethyldodeca-2,6,10-trien-1-yl)-3,7-dihydro-1H-purine-2,6-dione] | < 7 | 1.2 | 1.15 | no significant difference | no significant difference | –
6 | C/C(=C/C(=O)CC(C)C)CCC/C(C)=C/CC/C(C)=C/CNC=O [malonganenone C] | – | – | – | – | – | IC50 [4]: 5.2 µM
7 | CC(C)=CCC/C(C)=C/CCC(C)=CCn1cnc2c(cnn2CC=C(C)CC/C=C(\C)CCC=C(C)C)c1=O [Compound 47, 1,5-Bis((6E)-3,7,11-trimethyldodeca-2,6,10-trien-1-yl)-1,5-dihydro-4H-pyrazolo[3,4-d]pyrimidin-4-one] | < 7 | 1.2 | 1.23 | no significant difference | no significant difference | inhibition of basal ATPase activity [9]: 66%; inhibition at 1 µM ([10]; TbHsp70, 1 μM): 44%
8 | CC(C)=CCC/C(C)=C/Cn1ccc(=NC=O)n(C/C=C(\C)CCC=C(C)C)c1=O [Compound 60, N-(-1,3-Bis((E)-3,7-dimethylocta-2,6-dien-1-yl)-2-oxo-2,3-dihydropyrimidin-4(1H)-ylidene)formamide] | < 7 | 4.9 | 4.89 | – | – | inhibition at 300 µM ([10]; TbHsp70, 300 μM, Figure S6): 39%
9 | CC(C)=CCC/C(C)=C/CCC(C)=CCn1ccc(=N)n(CC=C(C)CC/C=C(\C)CCC=C(C)C)c1=O [Compound 63, 4-imino-1,3-bis((6E)-3,7,11-trimethyldodeca-2,6,10-trien-1-yl)-3,4-dihydropyrimidin-2(1H)-one] | < 7 | 2.1 | 2.05 | no significant difference | no significant difference | –
10 | CC(C)=CCC/C(C)=C/Cn1cnc2c1c(=O)[nH]c(=O)n2C/C=C(\C)CCC=C(C)C [Compound 27, 3,7-Bis((E)-3,7-dimethylocta-2,6-dien-1-yl)-3,7-dihydro-1H-purine-2,6-dione] | < 7 | 2 | – | no significant difference | no significant difference | –
11 | CC(C)=CC(=O)C/C(C)=C/CC/C(C)=C/CC/C(C)=C/Cn1cnc2c1c(=O)ncn2C [malonganenone L] | – | – | – | – | – | IC50 [5]: 8.5 µM
12 | CC(C)=CCC/C(C)=C/CCC(C)=CCn1ccc(=NC=O)n(CC=C(C)CC/C=C(\C)CCC=C(C)C)c1=O [Compound 62, N-(-2-Oxo-1,3-bis((6E)-3,7,11-trimethyldodeca-2,6,10-trien-1-yl)-2,3-dihydropyrimidin-4(1H)-ylidene)formamide] | – | – | – | – | – | toxicity to HeLa cells [1]: toxic
13 | CC[C@H]1CN2CCc3cc(OC)c(OC)cc3[C@@H]2C[C@@H]1C[C@H]1NCCc2cc(OC)c(OC)cc21 [Emetine, reference compound] | – | – | – | – | – | viability at 24 h, 10 µM [11]: 6.03%
14 | CC(C)=CCC/C(C)=C/Cn1ccc(=N)n(C/C=C(\C)CCC=C(C)C)c1=O [Compound 61, 1,3-bis((E)-3,7-dimethylocta-2,6-dien-1-yl)-4-imino-3,4-dihydropyrimidin-2(1H)-one] | – | – | – | – | – | toxicity to HeLa cells [1]: toxic
15 | C/C(=C\CC/C(C)=C/Cn1cnc2c1c(=O)ncn2C)CC/C=C(\C)CC(=O)CC(C)C [malonganenone D] | – | – | – | – | – | reduction of c-Met kinase activity [12]: 2 fold
16 | CC(C)=CCC/C(C)=C/CC/C(C)=C/CC/C(C)=C/Cn1cnc2c(N(C)C)ncnc21 [Compound 14, N,N-dimethyl-9-((2E,6E,10E)-3,7,11,15-tetramethylhexadeca-2,6,10,14-tetraen-1-yl)-9H-purin-6-amine] | – | 9.2 | 9.22 | – | – | –

Source: PMC7074166, “Screening for Small Molecule Modulators of Trypanosoma brucei Hsp70 Chaperone Activity Based upon Alcyonarian Coral-Derived Natural Products” (Marine Drugs, 2020)
